Laboratory results published in patent publication EP0270692A1, “ANTIARRHYTHMIC AGENT” (KYOWA HAKKO KOGYO CO., LTD., priority 1986, dated 1988).
Structures can show the parent of a compound that is named as a salt. Where two headings read alike, the source gives them in different places.

What was measured:
[1] = tested on: chloroform-induced ventricular arrhythmias; test: Mouse chloroform-induced ventricular arrhythmias test; assay type: in vivo, DD-strain mice; settings: for Anti-arrhythmic Activity: 100 mg/kg orally, effective when two or more of three examples kept 720 or less heart beat/min for 30 seconds
Procedure: Antiarrhythmic activity was examined according to mouse chloroform-induced ventricular arrhythmias test.
DD-strain mice weighing 18 -22 g were abstinent from food and water for 4-5 hours and antiarrhythmic activity was examined according to the Block's method [Life Science 28, 2623 (1981)]. Drugs tested were orally administered (100 mg/kg) and the mice were exposed to chloroform. After stop of respiration, electrocardiogram was measured according to standard limb leading method. The case where 720 or less heart beat/min was maintained for 30 seconds was regarded as effective.
The test compound was judged as being effective when two or more examples were effective among three examples.

left atrium [2] = test: Reduction of amplitude of myocardial contractile force in excised left atrium; set-up: species or system Male Hartley-strain guinea pigs
Description: In Table 2, Test Nos. 1 and 4 are tests on antiarrhythmic activity and Test No. 3, on anticholine activity and Test No. 5, on side effect.

pupil size = test: Mydriasis activity test (anticholine activity); assay type: in vivo, Male dd-strain mice; settings: oral; dose required to double the pupil size 30 minutes after administration
Description: (§1) In Table 2, Test Nos. 1 and 4 are tests on antiarrhythmic activity and Test No. 3, on anticholine activity and Test No. 5, on side effect. What is meant by the small ratio of Test No. 1 to that of Test No. 3 and the small ratio of Test No. 4 to that of Test No. 5 is that the compound has high therapeutic ratio (wide safety margin).

[3] = Test for acute toxicity (MLD; LD50); settings: mouse, in vivo
Procedure: (§2) Groups of 5 male dd-strain mice weighing 20 ±1 g were used. The test compounds were administered either orally (0.3 mg/kg) or intraperitoneally (0.1 mg/kg).
(§3) The MLD (minimum lethal dose) was determined by observing the mortality for 7 days after the administration.

male dd-strain mice = test: Test for acute toxicity (MLD; LD50); settings: mouse, in vivo
Procedure: as §2, §3

left atrium [4] = test: Prolongation of effective refractory period in excised left atrium; set-up: species or system Male Hartley-strain guinea pigs; settings: Cavia porcellus; guinea pig left atrium in Krebs-Henseleit solution, 31 ± 1°C; read-out: The concentration required to prolong effective refractory period by 30%
Description: as §1

| SMILES | Anti-arrhythmic Activity [1] | ED50 ([1]; mouse, oral, read-out: Chloroform-induced ventricular antiarrhythmic activity test ED50) [mg/kg] | The concentration required to reduce the amplitude of myocardial contractile force by 30% (left atrium [2]; guinea pig left atrium in Krebs-Henseleit solution, 31 ± 1°C) [µg/mL] | 5/4 (ratio) (left atrium [2]; ratio of Test No. 5 (contractile force) to Test No. 4 (refractory period)) | Mydriasis activity test ED100 (pupil size) [mg/kg] | LD50 at 72 h ([3]; iv, read-out: Acute toxicity test LD50 iv) [mg/kg] | LD50 at 72 h ([3]; po, read-out: Acute toxicity test LD50 po) [mg/kg] | Acute Toxicity MLD i.p. (male dd-strain mice; ip) | Acute Toxicity MLD p.o. (male dd-strain mice; po) | EC30 (left atrium [4]) [µg/mL] |
| --- | --- | --- | --- | --- | --- | --- | --- | --- | --- | --- |
| CCN(CC)CCNC1c2cc(OC)ccc2OCc2ncccc21 (centres unmarked) [1.5 Fumarate of Compound 1] | Effective | 80 | 110 | 22.4 | 235 | 93 | > 1000 | more than 100 mg/kg | more than 300 mg/kg | 4.9 |
| CCN(CC)CCNC1c2cc(C)ccc2OCc2ncccc21 (centres unmarked) [5-[2-diethylamino)-ethyl]amino-7-methyl-5,11-dihydro[1]benz-oxepino[3,4-b]pyridine, reference compound] | ^*3 Ineffective | – | – | – | – | – | – | – | – | – |
